Publication PMC11356900, “Synthesis, Structural Properties and Biological Activities of Novel Hydrazones of 2-, 3-, 4-Iodobenzoic Acid” (Molecules, 2024)
Values after ≈ are worked out from the molar mass of the structure shown. Read-outs that look alike come from different tables or passages of the source.

Legend:
[1] = system: Candida albicans ATCC 10231; assay: Broth microdilution MIC/MFC; format: cell-based; conditions: for MFC: ATCC10231, read-out: MFC; for MIC: ATCC10231, read-out: MIC
How it was run: (§1)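 Two-fold dilutions in RPMI 1640 with MOPS (fungi) or Mueller-Hinton broth (bacteria), final 1000–0.488 µg/mL, inoculum 0.5 McFarland in 0.85% NaCl. MIC read spectrophotometrically; MBC/MFC as lowest concentration with no visible growth after well contents were spotted onto agar.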

[2] = system: Candida albicans ATCC 2091; assay: Broth microdilution MIC/MFC; format: cell-based; conditions: for MFC: ATCC2091, read-out: MFC; for MIC: ATCC2091, read-out: MIC
How it was run: as §1

[3] = system: Candida glabrata ATCC 90030; assay: Broth microdilution MIC/MFC; format: cell-based; conditions: Nakaseomyces glabratus; for MFC: ATCC90030, read-out: MFC; for MIC: ATCC90030, read-out: MIC
How it was run: as §1

[4] = system: Candida krusei ATCC 14243; assay: Broth microdilution MIC/MFC; format: cell-based; conditions: Pichia kudriavzevii; for MFC: ATCC14243, read-out: MFC; for MIC: ATCC14243, read-out: MIC
How it was run: as §1

[5] = system: Candida parapsilosis ATCC 22019; assay: Broth microdilution MIC/MFC; format: cell-based; conditions: Lodderomyces parapsilosis; for MFC: ATCC22019, read-out: MFC; for MIC: ATCC22019, read-out: MIC
How it was run: as §1

[6] = system: Gram-positive bacteria; assay: Broth microdilution, summary over reference Gram-positive bacteria; format: cell-based; conditions: for antibacterial activity in words: reference Gram-positive bacteria / studied bacteria
How it was run: as §1

[7] = system: Candida spp.; assay: Broth microdilution, summary over reference yeasts; format: cell-based; conditions: for MFC / MIC / MFC/MIC: range over the reference Candida spp. strains; for antifungal activity in words: reference yeasts from Candida spp.
Source text: (§2) Procedures of in vitro antimicrobial assays are described in Supplementary Materials.
(§3) 2. Microbiology – in vitro antimicrobial activity assays […]
(§4) using the broth microdilution method according to the European Committee on Antimicrobial Susceptibility Testing (EUCAST) and Clinical and Laboratory Standards Institute guidelines against a panel of reference and clinical or saprophytic strains of mi croorganisms, including the Gram-positive bacteria: Staphylococcus aureus ATCC 43300 (Methi-cillin Resistant S. aureus – MRSA), Staphylococcus aureus ATCC 29213 (Methicillin Susceptible S. aureus – MSSA), Staph-ylococcus epidermidis ATCC 12228, Micrococcus luteus ATCC 10240, Bacillus subtilis ATCC 6633 and Bacillus cereus ATCC 10876), Gram-negative bacteria: Bordetella bronchiseptica ATCC 4617, Escherichia coli ATCC 25922, Klebsiella pneumoniae ATCC 13883, Proteus mirabilis ATCC 12453, Salmonella typhimurium ATCC 14028 and Pseudomonas aeruginosa ATCC 9027, and fungi belonging to yeasts: Candida albicans ATCC 10231, Candida albicans ATCC 2091, Candida parapsilosis ATCC 22019, Candida glabrata ATCC 90030 and Candida krusei ATCC 14243. The microorganisms belonging to ATCC originated from American Type Culture Collection, routinely used for the evaluation of antimicrobials. All the used microbial cultures were first subcultured on nutrient agar or Sabouraud agar at 35°C for 18-24 h or 30°C for 24-48 h for bacteria […]
(§5) The surface of Mueller-Hinton agar (for bacteria) and RPMI 1640 with MOPS (for fungi) were inoculated with the suspensions of bacterial or fungal species. Microbial suspensions were prepared in sterile saline with an optical density of McFarland standard scale 0.5. The samples containing the compounds were dissolved in dimethyl sulfoxide (DMSO).
Furthermore, the bacterial and fungal suspensions put onto the Petri dishes with solid media containing 2 mg/mL of the tested compounds followed were incubated at 37°C for 24h and 30°C for 48h for bacteria and fungi, respectively.
The inhibition of microbial growth was estimated comparing with a control culture prepared without any tested sam- […]
antifungal compounds, respectively.
Subsequently, MIC (Minimal Inhibitory Concentration) of the compounds was examined by the microdilution broth method, using their two-fold dilutions in Mueller-Hinton broth (for bacteria) and RPMI 1640 broth with MOPS (for fungi) prepared in the 96-well polystyrene plates. The final concentrations of the compounds ranged from 1000 to 0.488 µg/mL. Microbial suspensions were prepared in 0.85% NaCl with an optical density of 0.5 McFarland standard. Next each bacterial or fungal suspension was added per each well containing broth and various concentrations of the exam-ined compounds. After incubation, the MIC was assessed spectrophotometrically as the lowest concentration of the […]
Appropriate DMSO, growth and sterile controls were carried out. The medium with no tested substances was used as a control The MBC (Minimal Bactericidal Concentration) and MFC (Minimal Fungicidal Concentration) are defined as the lowest concentration of the compounds that is required to kill a particular bacterial or fungal species. The MBC/MFC was determined by removing the culture used for the MIC determination from each well and spotted onto the appro-priate agar medium. The plates were incubated under appropriate conditions for bacteria and fungi. The lowest com-pounds concentration with no visible growth observed was assessed as a bactericidal/fungicidal concentration. All the experiments were repeated three times and the representative data are presented.
1. European Committee for Antimicrobial Susceptibility Testing (EUCAST) Determination of minimum inhibitory con-centrations (MICs) of antibacterial agents by broth dilution. EUCAST discussion document E. Dis 5.1. Clin. Microbiol.
2. Clinical and Laboratory Standards Institute. Reference method for broth dilution antifungal susceptibility testing of […]

[8] = system: Bacillus cereus ATCC 10876; assay: Broth microdilution MIC/MBC; conditions: Bacillus cereus, ATCC10876
[9] = system: Gram-negative bacteria; assay: Broth microdilution, summary over reference Gram-negative bacteria; format: cell-based; conditions: for MIC: range over the reference Gram-negative bacteria; for antibacterial activity in words: reference Gram-negative bacteria
Source text: as §2, §3, §4, §5
Furthermore, the bacterial and fungal suspensions put onto the Petri dishes with solid media containing 2 mg/mL of the tested compounds followed were incubated at 37°C for 24h and 30°C for 48h for bacteria and fungi, respectively. […]
Subsequently, MIC (Minimal Inhibitory Concentration) of the compounds was examined by the microdilution broth method, using their two-fold dilutions in Mueller-Hinton broth (for bacteria) and RPMI 1640 broth with MOPS (for fungi) prepared in the 96-well polystyrene plates. […] After incubation, the MIC was assessed spectrophotometrically as the lowest concentration of the […]
Appropriate DMSO, growth and sterile controls were carried out. […] The MBC/MFC was determined by removing the culture used for the MIC determination from each well and spotted onto the appro-priate agar medium. […] The lowest com-pounds concentration with no visible growth observed was assessed as a bactericidal/fungicidal concentration. […]

[10] = range over the reference Gram-positive bacteria
[11] = range over the reference Gram-positive bacteria, read-out: MBC
[12] = range over the reference Gram-positive bacteria, read-out: MIC

Structure (SMILES) | MFC [1] [µg/mL] | MIC [1] [µg/mL] | MFC [2] [µg/mL] | MIC [2] [µg/mL] | MFC [3] [µg/mL] | MIC [3] [µg/mL] | MFC [4] [µg/mL] | MIC [4] [µg/mL] | MFC [5] [µg/mL] | MIC [5] [µg/mL] | MBC/MIC [6, 10] | MBC [6, 11] [µg/mL] | MIC [6, 12] [µg/mL] | antibacterial activity in words [6] | MFC [7] [µg/mL] | MIC [7] [µg/mL] | antifungal activity in words [7] | MBC [8] [µg/mL] | MIC [8] [µg/mL] | MFC/MIC [7] | also measured
O=C(N/N=C/c1cc(I)cc(I)c1O)c1ccccc1I [Compound 14, N-[(3,5-diiodo-2-hydroxyphenyl)methylidene]-2-iodobenzohydrazide] | 1000 (≈ 1620 µM) | 500 (≈ 809 µM) | > 1000 | 500 (≈ 809 µM) | 1000 (≈ 1620 µM) | 250 (≈ 405 µM) | > 1000 | 500 (≈ 809 µM) | > 1000 | 1000 (≈ 1620 µM) | 1–4 | 125 to 1000 (≈ 202 to 1620 µM) | 62.5 to 500 (≈ 101 to 809 µM) | good or moderate | ≥ 1000 | 250 to 1000 (≈ 405 to 1620 µM) | moderate or mild | 250 (≈ 405 µM) | 125 (≈ 202 µM) |  | 
O=C(N/N=C/c1cc(Cl)cc(I)c1O)c1cccc(I)c1 [Compound 20, N-[(5-chloro-2-hydroxy-3-iodophenyl)methylidene]-3-iodobenzohydrazide] | > 1000 | 250 (≈ 475 µM) | > 1000 | 500 (≈ 950 µM) | > 1000 | 125 (≈ 237 µM) | > 1000 | 500 (≈ 950 µM) | > 1000 | 125 (≈ 237 µM) | 1–4 |  |  | very strong (very strong bioactivity as a MIC < 10 µg/mL) |  | 125 to 500 (≈ 237 to 950 µM) | good and moderate | 31.2 (≈ 59.4 µM) | 7.81 (≈ 14.8 µM) | > 4 | MBC [6]: 3.91 to 62.5 µg/mL (≈ 7.43 to 119 µM); MIC [6]: 1.95 to 7.81 µg/mL (≈ 3.7 to 14.8 µM); MIC [9]: 500 to 1000 µg/mL (≈ 950 to 1900 µM); antibacterial activity in words [9]: mild or moderate
O=C(N/N=C/c1cc(Br)cc(Br)c1O)c1cccc(I)c1 [Compound 21, N-[(3,5-dibromo-2-hydroxyphenyl)methylidene]-3-iodobenzohydrazide] | > 1000 | 250 (≈ 477 µM) | > 1000 | 500 (≈ 954 µM) | > 1000 | 125 (≈ 239 µM) | > 1000 | 500 (≈ 954 µM) | > 1000 | 250 (≈ 477 µM) | 1–4 |  |  | strong or very strong |  | 125 to 500 (≈ 239 to 954 µM) | good and moderate | 62.5 (≈ 119 µM) | 15.6 (≈ 29.8 µM) | > 4 | MBC [6]: 3.91 to 62.5 µg/mL (≈ 7.46 to 119 µM); MIC [6]: 3.91 to 15.6 µg/mL (≈ 7.46 to 29.8 µM)
O=C(N/N=C/c1cc(Cl)cc(I)c1O)c1ccc(I)cc1 [Compound 27, N-[(5-chloro-2-hydroxy-3-iodophenyl)methylidene]-4-iodobenzohydrazide] | 31.2 (≈ 59.4 µM) | 15.6 (≈ 29.7 µM) | 62.5 (≈ 119 µM) | 62.5 (≈ 119 µM) | 62.5 (≈ 119 µM) | 31.2 (≈ 59.4 µM) | 62.5 (≈ 119 µM) | 62.5 (≈ 119 µM) | 62.5 (≈ 119 µM) | 31.2 (≈ 59.4 µM) | 1–4 | 31.2 to 500 (≈ 59.4 to 950 µM) | 31.2 to 125 (≈ 59.4 to 237 µM) | good (good bioactivity as a MIC in the range 26 – 125 µg/mL) | 62.5 (≈ 119 µM) | 31.2 to 62.5 (≈ 59.4 to 119 µM) | good (good bioactivity as a MIC in the range 26 – 125 µg/mL) | 250 (≈ 475 µM) | 62.5 (≈ 119 µM) | 1–2 | MIC [9]: 500 µg/mL (≈ 950 µM); antibacterial activity in words [9]: moderate (moderate bioactivity with MIC from 126 to 500 µg/mL)
